The text below walks through data of patent publication US8492588B2, “Benzyloxy anilide derivatives useful as potassium channel modulators” (Valeant Pharmaceuticals International, priority 2008, dated 2013).

The target of the assay is T1, KCNQ2/3 heteromultimers (Rattus norvegicus, UniProt O88943+O88944).
T1 construct: endogenous in cells; host or cells: PC-12 cells differentiated with NGF-7s; no transfection is described
Kind of assay: Rubidium (Rb+) efflux test in PC-12 cells. The conditions noted are these: NGF-differentiated PC-12 cells, depolarization buffer 15 mM KCl, 10 min. Format: cell-based. As to the method:
Compounds of this invention formula were evaluated for activity toward potassium channels in a cell-based Rb^+ efflux assay. This cellular bioassay is believed to faithfully represent the M current channel activities identified with KCNQ2/3 heteromultimers. […] Additionally, antiseizure activity in vivo was evaluated in a mouse maximal electroshock seizure (MES) model, and neurotoxicities were determined from a rotorod neurocognitive motor impairment model.
PC-12 cells were grown at 37° C. and 5% CO2 in DMEM/F12 Medium (Dulbecco's Modified Eagle Medium with Nutrient Mix F-12, available from Invitrogen of Carlsbad, Calif.), supplemented with 10% horse serum, 5% fetal bovine serum, 2 mM glutamine, 100 U/ml penicillin, and […] streptomycin. They were plated in poly-D-lysine-coated 96-well cell culture microplates at a density of 40,000 cells/well and differentiated with 100 ng/ml NGF-7s for 2-5 days. For the assay, the medium was aspirated, and the cells were washed once with 0.2 ml in wash buffer (25 mM HEPES, pH 7.4, 150 mM NaCl, 1 mM MgCl2; 0.8 mM NaH2PO4, 2 mM CaCl2). The cells were then loaded with 0.2 ml Rh^+ loading buffer (wash buffer plus 5.4 mM […], 5 mM glucose) and incubated at 37° C. for 2 h. Attached cells were quickly washed three times with buffer (same as Rb^+ loading buffer, but containing 5.4 mM KCl instead of RbCl) to remove extracellular Rb^+. Immediately following the wash, 0.2 ml of depolarization buffer (wash buffer plus 15 mM KCl) with or without compounds was added to the cells to activate efflux of potassium ion channels. After incubation for 10 min at room temperature, the supernatant was carefully removed and collected. Cells were lysed by the addition of 0.2 ml of lysis buffer (depolarization buffer plus 0.1% Triton X-100) and the cell lysates were also collected. If collected samples were not immediately analyzed for Rb^+ contents by atomic absorption spectroscopy (see below), they were stored at 4° C. without any negative effects on subsequent Rb^+ analysis.
The concentrations of Rb^+ in the supernatants (Rb^+Sup) and the cell lysates (Rb^+Lys) were quantified using an ICR8000 flame atomic absorption spectrometer (Aurora Biomed Inc., Vancouver, B.C.) under conditions defined by the manufacturer. Samples 0.05 ml in volume were processed automatically from microtiter plates by dilution with an equal volume of Rb^+ sample analysis buffer and injection into an air-acetylene flame. The amount of Rb^+ in the sample was measured by absorption at 780 nm using a hollow cathode lamp as light source and a PMT detector. A calibration curve covering the range 0-5 mg/L Rb^+ in sample analysis buffer was generated with each set of plates. The percent Rb^+ efflux (F) was defined by F=[Rb^+Sup/(Rb^+Sup+Rb^+Lys)]×100%. wherein the Fc is the efflux in the presence of compound in depolarization buffer, Fb is the efflux in basal buffer, and Fs is the efflux in depolarization buffer, […]. The efflux (F) and compound concentration relationship was plotted to calculate an EC50 value, a compound's concentration for 50% of maximal RV efflux. Maximal Electroshock Seizure (MES) and Acute Toxicity Tests MES Test
As for `CCOC(=O)Nc1ccc(OCc2ccc(F)cc2)cc1`, the EC50 was 50 to 500 nM.
`CCOC(=O)Nc1ccc(OCc2ccc(F)cc2)cc1F`: the EC50 lay within 50 to 500 nM.
With `CCOC(=O)Nc1ccc(OCc2ccc(F)cc2)cc1C` the figure was 50 to 500 nM; with `CCOC(=O)Nc1ccc(OCc2ccc(F)cc2)cc1C(F)(F)F`, 50 to 500 nM; with `Cc1cc(OCc2ccc(F)c(F)c2)cc(C)c1NC(=O)CCC1CCCC1`, 1 to 10 nM.
For the compound `Cc1cc(OCc2ccc(F)c(F)c2)cc(C)c1NC(=O)CC(C)(C)C`, the EC50 was in the range of 10 to 50 nM.
With `Cc1cc(OCc2ccc(F)cc2)cc(C)c1NC(=O)CCC1CCCC1` the figure was 1 to 10 nM.
For `Cc1cc(OCc2ccc(F)cc2)cc(C)c1NC(=O)CC(C)(C)C`, the EC50 fell in the range of 10 to 50 nM.
Take `Cc1ccc(COc2cc(C)c(NC(=O)CC(C)(C)C)c(C)c2)cc1`: the EC50 was in the range of 10 to 50 nM.
The compound `Cc1cc(OCc2cccc(C(F)(F)F)c2)cc(C)c1NC(=O)CC(C)(C)C` gave an EC50 of 10 to 50 nM.
In the case of `Cc1cc(OCc2ccccc2C(F)(F)F)cc(C)c1NC(=O)CC(C)(C)C` it was 50 to 500 nM; in that of `Cc1cc(OCc2ccc(Cl)cc2)cc(C)c1NC(=O)CC(C)(C)C`, 10 to 50 nM; in that of `Cc1cc(OCc2ccc(Br)cc2)cc(C)c1NC(=O)CC(C)(C)C`, 10 to 50 nM.
Consider `Cc1cc(OCc2ccc(C(F)(F)F)cc2)cc(C)c1NC(=O)CC(C)(C)C`, for which the EC50 lay in the range of 10 to 50 nM.
Turning to `Cc1cc(OCc2ccc(F)cc2F)cc(C)c1NC(=O)CC(C)(C)C`, the EC50 lay in the range of 10 to 50 nM.
Take `Cc1cc(OCc2cccc(Cl)c2)cc(C)c1NC(=O)CC(C)(C)C`: the EC50 was 10 to 50 nM.
In the case of `Cc1cc(OCc2cccc(F)c2)cc(C)c1NC(=O)CC(C)(C)C` it was 10 to 50 nM.
